Holding throughout (format): functional, cell-based
Common to all, as to settings: Huh-7, 24 h

For test [1], the system named is Huh-7. Kind of test: Antiproliferative activity against human Huh-7 cells after 24 hrs by Cell Titer Glo assay. A general note: ATP-based viability assays read luminescence as a measure of living cells.
Test [2] deals with Huh-7. Nature of the test: Antiproliferative activity against human Huh-7 cells in presence of 1 uM ferrostatin-1 measured after 24 hrs by Cell Titer Glo assay.
For test [3], the system named is Huh-7. Nature of the test: Antiproliferative activity against human Huh-7 cells in presence of 1 uM liproxstatin-1 measured after 24 hrs by Cell Titer Glo assay.

One may read the EC50 as the concentration needed to bring the measured effect to its halfway point. Compound `C#CC(=O)N(c1cccc(Cl)c1)[C@]1(C(=O)NCc2ccccc2)CC[C@H](O)CC1` came in with an EC50 in test [1] of 100 nM.
On the same count and under the same terms, then `C#CC(=O)N(c1ccc(OC)c(Cl)c1)C(C(=O)NC(C)(C)C)c1ccc(N)cc1` (stereo unspecified), with ≤ 100 nM; and `Cn1ncc2cc(N(C(=O)CCBr)C3(C(=O)NCc4ccccc4)CCOCC3)ccc21`, with > 10000 nM; and `C#CC(=O)N(c1cccc(Cl)c1)C(C(=O)NC(C)(C)C)c1ccc(N)cc1` (stereo unspecified), with 100 nM.
In the case of `C#CC(=O)N(c1cccc(Cl)c1)C1(C(=O)NCc2ccccc2)CCOCC1`, the half-maximal effective concentration (EC50) in test [1] was ≤ 100 nM; in test [2] it was > 10000 nM; in test [3] it was > 10000 nM.
Turning to `C#CC(=O)N(c1ccc(Cl)cc1)C(C(=O)NC(C)(C)C)c1ccc(N)cc1` (stereo unspecified), in test [1], a half-maximal response (EC50) required 100 nM.
Still for that read-out and setting: for `N#CCC(=O)N(c1cccc(Cl)c1)C1(C(=O)NCc2ccccc2)CCOCC1` the value was > 10000 nM; for `C#CC(=O)N(c1cccc(S(N)(=O)=O)c1)C(C(=O)NC(C)(C)C)c1ccc(N)cc1` (stereo unspecified), > 10000 nM; for `Cn1ncc2cc(N(C(=O)CCCl)C3(C(=O)NCc4ccccc4)CCOCC3)ccc21`, > 10000 nM.

The record behind these values is ChEMBL document CHEMBL5050859, “Gpx4 inhibitors, pharmaceutical compositions thereof, and their use for treating gpx4-mediated diseases” (2021).
